IC50 data for 19 compounds are collected here from patent publication US10660877B2 (BRISTOL-MYERS SQUIBB COMPANY, priority 2016, dated 2020).

SMILES strings stand for the structures. Where two headings read alike, the source gives them in different places. A value given as a limit tells only on which side of the number the result lay.

For one assay, the target named is human TLR9 (Homo sapiens (Human), UniProt Q9NR96). Briefly: TLR9 inhibition reporter assay (HEK-Blue cells, SEAP reporter, ODN2006 stimulation).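 Also: compounds tested over 0.05 nM to 50 µM, 22 h incubation, inhibition taken as SEAP signal drop from agonist plus DMSO wells toward a known inhibitor control.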
Chain of human TLR9 (Q9NR96 26-1032): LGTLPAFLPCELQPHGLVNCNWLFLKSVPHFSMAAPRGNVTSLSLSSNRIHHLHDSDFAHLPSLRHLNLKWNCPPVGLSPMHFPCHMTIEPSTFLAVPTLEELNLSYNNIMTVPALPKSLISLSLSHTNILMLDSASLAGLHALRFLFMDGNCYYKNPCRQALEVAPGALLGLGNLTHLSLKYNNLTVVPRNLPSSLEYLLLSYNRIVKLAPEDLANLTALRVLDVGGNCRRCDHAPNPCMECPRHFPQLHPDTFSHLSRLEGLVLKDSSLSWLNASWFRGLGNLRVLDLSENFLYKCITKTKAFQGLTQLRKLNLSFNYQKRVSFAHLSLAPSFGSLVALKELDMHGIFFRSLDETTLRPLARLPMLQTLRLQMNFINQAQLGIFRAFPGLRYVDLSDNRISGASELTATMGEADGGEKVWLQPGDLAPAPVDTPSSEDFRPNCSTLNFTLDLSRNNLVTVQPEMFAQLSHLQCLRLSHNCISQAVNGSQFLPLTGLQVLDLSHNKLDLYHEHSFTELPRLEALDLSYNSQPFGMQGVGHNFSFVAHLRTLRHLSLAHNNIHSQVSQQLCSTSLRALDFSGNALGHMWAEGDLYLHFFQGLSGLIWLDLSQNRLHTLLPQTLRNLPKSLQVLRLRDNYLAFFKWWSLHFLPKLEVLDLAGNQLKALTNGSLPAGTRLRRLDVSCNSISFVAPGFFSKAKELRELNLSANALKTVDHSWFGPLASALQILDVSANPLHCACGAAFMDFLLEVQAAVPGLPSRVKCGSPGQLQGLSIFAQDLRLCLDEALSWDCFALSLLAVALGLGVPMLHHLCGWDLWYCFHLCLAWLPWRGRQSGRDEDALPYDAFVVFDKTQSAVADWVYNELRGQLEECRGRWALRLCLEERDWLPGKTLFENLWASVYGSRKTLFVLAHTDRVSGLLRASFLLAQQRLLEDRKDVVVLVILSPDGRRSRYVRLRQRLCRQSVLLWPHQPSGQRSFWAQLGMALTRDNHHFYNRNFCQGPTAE
The target in the next assay is human TLR7 (Homo sapiens (Human), UniProt Q9NYK1). Nature of the assay: TLR7 inhibition reporter assay (HEK-Blue cells, SEAP reporter, gardiquimod stimulation). Format: cell-based. For orientation: Reporter assays use an easily measured gene product as a stand-in for the process of interest.
Chain of human TLR7 (Q9NYK1 27-1049): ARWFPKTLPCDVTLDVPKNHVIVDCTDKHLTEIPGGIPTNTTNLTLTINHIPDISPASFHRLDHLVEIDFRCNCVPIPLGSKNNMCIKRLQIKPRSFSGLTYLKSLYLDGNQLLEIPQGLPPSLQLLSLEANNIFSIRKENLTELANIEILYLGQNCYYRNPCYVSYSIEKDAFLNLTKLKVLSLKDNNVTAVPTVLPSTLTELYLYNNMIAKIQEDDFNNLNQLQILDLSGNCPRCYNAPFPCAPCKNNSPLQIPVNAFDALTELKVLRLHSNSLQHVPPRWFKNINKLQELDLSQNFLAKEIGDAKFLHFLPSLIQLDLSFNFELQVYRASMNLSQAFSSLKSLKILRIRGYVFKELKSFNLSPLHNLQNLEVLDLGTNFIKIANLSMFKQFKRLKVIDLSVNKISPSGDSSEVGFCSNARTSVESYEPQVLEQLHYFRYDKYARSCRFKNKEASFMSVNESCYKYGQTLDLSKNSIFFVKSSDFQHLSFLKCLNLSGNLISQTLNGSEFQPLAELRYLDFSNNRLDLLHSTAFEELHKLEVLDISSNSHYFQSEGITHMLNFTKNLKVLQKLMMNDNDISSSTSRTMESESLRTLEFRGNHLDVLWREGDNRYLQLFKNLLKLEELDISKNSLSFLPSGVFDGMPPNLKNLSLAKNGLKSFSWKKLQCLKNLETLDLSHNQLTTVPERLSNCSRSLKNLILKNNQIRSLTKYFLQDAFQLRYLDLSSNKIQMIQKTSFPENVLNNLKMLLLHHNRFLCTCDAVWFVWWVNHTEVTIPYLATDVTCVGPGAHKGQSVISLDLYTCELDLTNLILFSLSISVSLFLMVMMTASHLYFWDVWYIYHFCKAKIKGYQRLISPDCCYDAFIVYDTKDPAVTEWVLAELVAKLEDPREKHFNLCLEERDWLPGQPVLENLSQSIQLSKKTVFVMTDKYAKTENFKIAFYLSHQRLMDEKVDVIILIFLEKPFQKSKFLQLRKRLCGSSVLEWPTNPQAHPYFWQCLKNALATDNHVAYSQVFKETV
In the next assay the target is human TLR8 (Homo sapiens (Human), UniProt Q9NR97). Nature of the assay: TLR8 inhibition reporter assay (HEK-Blue cells, SEAP reporter, R848 stimulation).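 Also: compounds tested from 0.05 nM to 50 µM, 22 h at 37 °C, SEAP measured with HEK-Blue Detection, inhibition relative to agonist plus DMSO versus a known inhibitor.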
Chain of human TLR8 (Q9NR97 27-1041): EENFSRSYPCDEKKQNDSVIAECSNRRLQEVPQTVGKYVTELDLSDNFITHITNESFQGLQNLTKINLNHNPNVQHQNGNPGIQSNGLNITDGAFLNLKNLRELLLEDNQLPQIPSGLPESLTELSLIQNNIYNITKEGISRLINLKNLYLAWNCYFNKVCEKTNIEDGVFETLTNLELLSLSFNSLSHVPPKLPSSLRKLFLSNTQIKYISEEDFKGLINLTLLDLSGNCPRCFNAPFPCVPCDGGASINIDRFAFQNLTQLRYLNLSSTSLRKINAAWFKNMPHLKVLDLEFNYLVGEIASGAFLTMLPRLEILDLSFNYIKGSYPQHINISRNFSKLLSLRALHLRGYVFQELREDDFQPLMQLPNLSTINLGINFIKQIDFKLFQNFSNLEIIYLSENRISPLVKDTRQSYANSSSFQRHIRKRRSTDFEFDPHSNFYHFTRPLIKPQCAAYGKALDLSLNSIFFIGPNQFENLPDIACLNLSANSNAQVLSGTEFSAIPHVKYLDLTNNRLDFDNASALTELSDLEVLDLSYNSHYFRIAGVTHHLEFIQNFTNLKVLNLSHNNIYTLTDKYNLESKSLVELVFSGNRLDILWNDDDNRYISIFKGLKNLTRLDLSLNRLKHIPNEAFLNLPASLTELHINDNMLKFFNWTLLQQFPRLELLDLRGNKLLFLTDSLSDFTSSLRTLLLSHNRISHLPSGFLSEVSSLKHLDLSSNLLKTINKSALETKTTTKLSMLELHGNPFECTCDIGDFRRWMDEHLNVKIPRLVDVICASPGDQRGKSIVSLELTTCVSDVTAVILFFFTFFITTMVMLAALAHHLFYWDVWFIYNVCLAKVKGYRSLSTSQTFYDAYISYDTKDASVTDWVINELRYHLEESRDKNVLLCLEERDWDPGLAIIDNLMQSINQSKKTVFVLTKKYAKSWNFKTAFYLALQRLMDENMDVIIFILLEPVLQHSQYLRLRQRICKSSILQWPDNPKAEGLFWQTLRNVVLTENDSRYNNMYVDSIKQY
The mark [1] stands for this setting: read-out: TLR9 IC50, HEK-Blue cells overexpressing human TLR9, ODN2006 5 nM.
The mark [2] stands for this setting: HEK-Blue cells overexpressing human TLR7, gardiquimod 7.5 μM.
[3] abbreviates: read-out: TLR8 IC50, HEK-Blue cells overexpressing human TLR8, R848 15.9 μM.

Take `Cc1cc(-c2[nH]c3ccc(C4CCN(C(=O)Cn5nnc(N6CCOCC6)n5)CC4)cc3c2C(C)C)cc(C)n1` [Example 149, 1-(4-(2-(2,6-dimethylpyridin-4-yl)-3-isopropyl-1H-indol-5-yl)piperidin-1-yl)-2-(5-morpholino-2H-tetrazol-2-yl)ethan-1-one]: the IC50 on human TLR9 (setting [1]) was 16100 nM; on human TLR7 (setting [2]) it was 21.6 nM; on human TLR8 (setting [3]) it was 143 nM.

For `CCc1c(-c2ccnc(C)c2)[nH]c2ccc(C3CCN(C(=O)[C@H]4CC(F)(F)CN4)CC3)cc12` [Example 623, (R)-(4,4-difluoropyrrolidin-2-yl)(4-(3-ethyl-2-(2-methylpyridin-4-yl)-1H-indol-5-yl)piperidin-1-yl)methanone], the IC50 at human TLR9 (setting [1]) amounted to 14500 nM; at human TLR7 (setting [2]) it was 201 nM; on human TLR8 (setting [3]) it was 226 nM.

Take `Cc1cc(-c2[nH]c3ccc(C4CCN(C(=O)CN(C)C5CCCCC5)CC4)cc3c2C(C)C)cc(C)n1` [Example 384, 2-(cyclohexyl (methyl)amino)-1-(4-(2-(2,6-dimethylpyridin-4-yl)-3-isopropyl-1H-indol-5-yl)piperidin-1-yl)ethan-1-one]: the concentration for half-maximal inhibition (IC50) at human TLR9 (setting [1]) stood at 630 nM; against human TLR7 (setting [2]), 14.4 nM; at human TLR8 (setting [3]), 57 nM.

As to `Cc1cc(-c2[nH]c3ccc(C4CCN(C(=O)CN5CC[C@H](O)C5)CC4)cc3c2C(C)C)cc(C)n1` [Example 380, (S)-1-(4-(2-(2,6-dimethylpyridin-4-yl)-3-isopropyl-1H-indol-5-yl)piperidin-1-yl)-2-(3-hydroxypyrrolidin-1-yl)ethan-1-one], the results for the IC50 on human TLR9 (setting [1]), on human TLR7 (setting [2]) and on human TLR8 (setting [3]) were 354 nM, 2 nM and 10.5 nM, respectively.

Take `Cc1cc(-c2[nH]c3ccc(C4CCN(C(=O)[C@H]5CCC[C@@]5(C)N)CC4)cc3c2C(C)C)ccn1` [Example 569, ((1S,2R)-2-amino-2-methylcyclopentyl)(4-(3-isopropyl-2-(2-methylpyridin-4-yl)-1H-indol-5-yl)piperidin-1-yl)methanone]: the IC50 at human TLR9 (setting [1]) was determined as 912 nM; against human TLR7 (setting [2]), 14.4 nM; on human TLR8 (setting [3]) it was 15 nM.

For the compound `CNC(=O)CN1CCC(c2ccc3[nH]c(-c4cc(C)nc(C)c4F)c(C(C)C)c3c2)CC1` [Example 655, 2-(4-(2-(3-fluoro-2,6-dimethylpyridin-4-yl)-3-isopropyl-1H-indol-5-yl)piperidin-1-yl)-N-methylacetamide], the results for the IC50 at human TLR9 (setting [1]), on human TLR7 (setting [2]) and on human TLR8 (setting [3]) were 1750 nM, 1.3 nM and 4.2 nM, respectively.

In the case of `Cc1cc(-c2[nH]c3ccc(C4CCN(CCC#N)CC4)cc3c2C(C)C)cc(C)n1` [Example 315, 3-(4-(2-(2,6-dimethylpyridin-4-yl)-3-isopropyl-1H-indol-5-yl)piperidin-1-yl)propanenitrile], the IC50 was 1060 nM at human TLR9 (setting [1]), 6.6 nM on human TLR7 (setting [2]) and 9 nM at human TLR8 (setting [3]).

Regarding `COC[C@@H]1CCCN1CC(=O)N1CCC(c2ccc3[nH]c(-c4cc(C)nc(C)c4)c(C(C)C)c3c2)CC1` [Example 370, (S)-1-(4-(2-(2,6-dimethylpyridin-4-yl)-3-isopropyl-1H-indol-5-yl)piperidin-1-yl)-2-(2-(methoxymethyl)pyrrolidin-1-yl)ethan-1-one], the IC50 at human TLR9 (setting [1]) came to 889 nM; against human TLR7 (setting [2]), 4.7 nM; at human TLR8 (setting [3]), 28.8 nM.

In the case of `Cc1cc(-c2[nH]c3ccc(C4CCN(Cc5cc(C)on5)CC4)cc3c2C(C)C)c(F)cn1` [Example 686, 3-((4-(2-(5-fluoro-2-methylpyridin-4-yl)-3-isopropyl-1H-indol-5-yl)piperidin-1-yl)methyl)-5-methylisoxazole], the IC50 at human TLR9 (setting [1]) was determined as 9450 nM; on human TLR7 (setting [2]), 35.2 nM; on human TLR8 (setting [3]) it was 4.1 nM.

As to `Cc1cc(-c2[nH]c3ccc(C4CCN(C(=O)C5CC(=O)N(C)C5)CC4)cc3c2C(C)C)cc(C)n1` (single isomer, unassigned) [Example 101, 4-(4-(2-(2,6-dimethylpyridin-4-yl)-3-isopropyl-1H-indol-5-yl)piperidine-1-carbonyl)-1-methylpyrrolidin-2-one], the 50% inhibitory concentration (IC50) against human TLR9 (TLR9 IC50, HEK-Blue cells overexpressing human TLR9, ODN2006 5 nM) was 36900 nM; on human TLR7 (setting [2]) it was 9.3 nM; on human TLR8 (TLR8 IC50, HEK-Blue cells overexpressing human TLR8, R848 15.9 μM) it was 52.4 nM.

`CCN1CCC(N2CCC(c3ccc4[nH]c(-c5ccnc(OC)c5)c(C(C)C)c4c3)CC2)CC1` [Example 801, 5-(1′-ethyl-[1,4′-bipiperidin]-4-yl)-3-isopropyl-2-(2-methoxypyridin-4-yl)-1H-indole]: the IC50 at human TLR9 (setting [1]) was 740 nM; on human TLR7 (setting [2]) it was 561 nM; on human TLR8 (setting [3]), 218 nM.

Turning to `Cc1cc(-c2[nH]c3ccc(C4CCNCC4)cc3c2C(C)C)c(C)c(C)n1` [Example 39, 3-isopropyl-5-(piperidin-4-yl)-2-(2,3,6-trimethylpyridin-4-yl)-1H-indole], the IC50 was 955 nM on human TLR9 (setting [1]), 7.2 nM against human TLR7 (setting [2]) and 22.3 nM on human TLR8 (setting [3]).

As to `Cc1cc(-c2[nH]c3ccc(C4CCN(C(=O)CNC5(C)CC5)CC4)cc3c2C(C)C)cc(C)n1` [Example 360, 1-(4-(2-(2,6-dimethylpyridin-4-yl)-3-isopropyl-1H-indol-5-yl)piperidin-1-yl)-2-((1-methylcyclopropyl)amino)ethan-1-one], the half-maximal inhibitory concentration (IC50) at human TLR9 (setting [1]) was determined as 795 nM; on human TLR7 (setting [2]) it was 4 nM; on human TLR8 (setting [3]) it was 15.8 nM.

Consider `Cc1cc(-c2[nH]c3ccc(C4CCN(CC(C)C)CC4)cc3c2C(C)C)c(C)cn1` [Example 666, 2-(2,5-dimethylpyridin-4-yl)-5-(1-isobutylpiperidin-4-yl)-3-isopropyl-1H-indole], for which the IC50 is 948 nM at human TLR9 (setting [1]), 5.8 nM on human TLR7 (setting [2]) and 2.6 nM at human TLR8 (setting [3]).

Turning to `Cc1cc(-c2[nH]c3ccc(C4CCN(Cc5nncn5C)CC4)cc3c2C(C)C)cc(C)n1` [Example 464, 2-(2,6-dimethylpyridin-4-yl)-3-isopropyl-5-(1-((4-methyl-4H-1,2,4-triazol-3-yl)methyl)piperidin-4-yl)-1H-indole], the half-inhibitory concentration (IC50) was determined as 2560 nM at human TLR9 (setting [1]), 6.3 nM on human TLR7 (setting [2]) and 6.3 nM on human TLR8 (setting [3]).

Take `Cc1cc(-c2[nH]c3ccc(C4CCN(C(=O)[C@@H]5CCC[C@H](N)C5)CC4)cc3c2C(C)C)ccn1` [Example 576, ((1R,3S)-3-aminocyclohexyl)(4-(3-isopropyl-2-(2-methylpyridin-4-yl)-1H-indol-5-yl)piperidin-1-yl)methanone]: the concentration for half-maximal inhibition (IC50) at human TLR9 (setting [1]) turned out to be 731 nM; on human TLR7 (setting [2]), 15.1 nM; on human TLR8 (setting [3]) it was 24.1 nM.

With `COc1cc(-c2[nH]c3ccc(C4CCNCC4)cc3c2C(C)C)c(F)cn1` [Example 47, 2-(5-fluoro-2-methoxypyridin-4-yl)-3-isopropyl-5-(piperidin-4-yl)-1H-indole], the values for the IC50 at human TLR9 (setting [1]), against human TLR7 (setting [2]) and on human TLR8 (setting [3]) were 3500 nM, 9 nM and 36.2 nM, respectively.

With `CC(C)c1c(-c2ccnc(N)c2)[nH]c2ccc(C3CCN(Cc4cnc[nH]4)CC3)cc12` [Example 817, 4-(5-(1-((1H-imidazol-5-yl)methyl)piperidin-4-yl)-3-isopropyl-1H-indol-2-yl)pyridin-2-amine], the IC50 at human TLR9 (read-out: TLR9 IC50, HEK-Blue cells, ODN2006 5 nM) worked out at 177 nM; against human TLR7 (HEK-Blue cells, gardiquimod 7.5 μM), 224 nM; at human TLR8 (read-out: TLR8 IC50, HEK-Blue cells, R848 15.9 μM), 56 nM.

On to `Cc1cc(-c2[nH]c3ccc(C4CCN(C(=O)c5ccc6ccccn6c5=O)CC4)cc3c2C(C)C)cc(C)n1` [Example 145, 3-(4-(2-(2,6-dimethylpyridin-4-yl)-3-isopropyl-1H-indol-5-yl)piperidine-1-carbonyl)-4H-quinolizin-4-one], for which the concentration for half-maximal inhibition (IC50) on human TLR9 (setting [1]) is > 50000 nM; against human TLR7 (setting [2]), 28.7 nM; on human TLR8 (setting [3]), 347 nM.

The IC50 is the concentration that inhibits the measured activity by half.
